Measurements from ChEMBL document CHEMBL3739426, “Synthesis and biological evaluation of novel 2-isoxazoline fused cyclopentane derivatives as potential antimicrobial and anticancer agents” (Medchemcomm, 2015).
≈ marks a conversion by molar mass, not a printed value.

What was measured:
[1] = test system: A549; test: Cytotoxicity against human A549 cells after 48 hrs by MTT assay; format: functional, cell-based; conditions: A549, 48 h
[2] = Cytotoxicity against human PC3 cells after 48 hrs by MTT assay; format: functional, cell-based; conditions: PC-3, 48 h
[3] = test system: Candida albicans; test: Antimicrobial activity against Candida albicans by cup plate diffusion method; format: functional
[4] = test system: Pseudomonas sp.; test: Antimicrobial activity against Pseudomonas sp. by cup plate diffusion method; format: functional
[5] = test system: Priestia megaterium; test: Antimicrobial activity against Bacillus megaterium by cup plate diffusion method; format: functional
[6] = test system: HeLa; test: Cytotoxicity against human HeLa cells after 48 hrs by MTT assay; format: functional, cell-based
[7] = test system: HT-29; test: Cytotoxicity against human HT-29 cells after 48 hrs by MTT assay; format: functional, cell-based; conditions: HT-29, 48 h
[8] = test system: Escherichia coli; test: Antimicrobial activity against Escherichia coli by cup plate diffusion method; format: functional
[9] = test system: Bacillus subtilis; test: Antimicrobial activity against Bacillus subtilis by cup plate diffusion method; format: functional
[10] = test system: MCF7; test: Cytotoxicity against human MCF7 cells after 48 hrs by MTT assay; format: functional, cell-based; conditions: MCF7, 48 h

Compound	IC50 [1] [µg/mL]	IC50 [2] [µg/mL]	MIC [3] [µg/mL]	MIC [4] [µg/mL]	MIC [5] [µg/mL]	IC50 [6] [µg/mL]	IC50 [7] [µg/mL]	MIC [8] [µg/mL]	MIC [9] [µg/mL]	IC50 [10] [µg/mL]
COc1ccc(C2=NO[C@@H]3[C@H](CO)C[C@H](CO)[C@H]23)cc1OC	> 50	> 50	4.6 (≈ 15 µM)	1.2 (≈ 3.9 µM)	46.8 (≈ 152 µM)	> 50	> 50	0.92 (≈ 2.99 µM)	46.8 (≈ 152 µM)	> 50
N#Cc1ccc(C2=NO[C@H]3[C@@H]2[C@@H](C(=O)O)C[C@H]3C(=O)O)cc1	> 50	> 50	> 100	> 100	> 100	33.3 (≈ 111 µM)	30.3 (≈ 101 µM)	> 100	> 100	> 50
O=C(O)[C@H]1C[C@@H](C(=O)O)[C@H]2ON=C(c3ccc4ccccc4c3)[C@H]21	> 50	> 50	> 100	> 100	> 100	> 50	29.7 (≈ 91.3 µM)	> 100	> 100	31.8 (≈ 97.7 µM)
OC[C@@H]1C[C@H](CO)[C@@H]2C(c3ccc(Br)cc3)=NO[C@H]12	> 50	> 50	> 100	> 100	48.6 (≈ 149 µM)	> 50	37.3 (≈ 114 µM)	> 100	48.6 (≈ 149 µM)	> 50
GENTAMICIN				8				2		
O=C(O)[C@H]1C[C@@H](C(=O)O)[C@H]2ON=C(c3ccccc3Cl)[C@H]21	> 50	> 50	> 100	> 100	> 100	> 50	> 50	> 100	> 100	> 50
N#Cc1ccc(C2=NO[C@@H]3[C@H](CO)C[C@H](CO)[C@H]23)cc1	> 50	> 50	11 (≈ 40.4 µM)	2.1 (≈ 7.71 µM)	21 (≈ 77.1 µM)	> 50	> 50	2.1 (≈ 7.71 µM)	21 (≈ 77.1 µM)	> 50
COC(=O)[C@H]1C[C@@H](C(=O)OC)[C@H]2ON=C(c3ccc(Cl)cc3)[C@H]21	> 50	> 50	> 100	> 100	> 100	> 50	> 50	> 100	> 100	> 50
O=C(O)[C@H]1C[C@@H](C(=O)O)[C@H]2ON=C(c3ccc(F)cc3)[C@H]21	> 50	> 50	> 100	7.8 (≈ 26.6 µM)	> 100	> 50	> 50	78 (≈ 266 µM)	> 100	> 50
COC(=O)[C@H]1C[C@@H](C(=O)OC)[C@H]2ON=C(c3ccc(F)cc3)[C@H]21	> 50	> 50	> 100	> 100	> 100	20.1 (≈ 62.6 µM)	> 50	> 100	> 100	39.4 (≈ 123 µM)
O=C(O)[C@H]1C[C@@H](C(=O)O)[C@H]2ON=C(c3ccc(Cl)cc3)[C@H]21	30 (≈ 96.9 µM)	> 50	> 100	> 100	30 (≈ 96.9 µM)	19 (≈ 61.3 µM)	> 50	> 100	60 (≈ 194 µM)	28.5 (≈ 92 µM)
COc1cc([C@@H]2c3cc4c(cc3[C@@H](O[C@@H]3O[C@@H]5CO[C@@H](C)O[C@H]5[C@H](O)[C@H]3O)[C@H]3COC(=O)[C@H]23)OCO4)cc(OC)c1O [ETOPOSIDE]	8.9 (≈ 15.1 µM)	7.2 (≈ 12.2 µM)				2.35 (≈ 3.99 µM)	4.21 (≈ 7.15 µM)			11.9 (≈ 20.3 µM)
COC(=O)[C@H]1C[C@@H](C(=O)OC)[C@H]2ON=C(c3ccc(OC)cc3)[C@H]21	> 50	> 50	> 100	> 100	> 100	> 50	28.9 (≈ 86.7 µM)	> 100	> 100	> 50
OC[C@@H]1C[C@H](CO)[C@@H]2C(c3ccc(F)cc3)=NO[C@H]12	31.1 (≈ 117 µM)	> 50	> 100	> 100	> 100	> 50	17.8 (≈ 67.1 µM)	> 100	> 100	> 50
COC(=O)[C@H]1C[C@@H](C(=O)OC)[C@H]2ON=C(c3ccc(OC)c(OC)c3)[C@H]21	> 50	> 50	> 100	> 100	> 100	> 50	> 50	> 100	> 100	> 50
Cc1ccc(C2=NO[C@@H]3[C@H](CO)C[C@H](CO)[C@H]23)cc1	> 50	28 (≈ 107 µM)	> 100	> 100	> 100	26.5 (≈ 101 µM)	> 50	> 100	> 100	> 50
COC(=O)[C@H]1C[C@@H](C(=O)OC)[C@H]2ON=C(c3ccc(Br)cc3)[C@H]21	> 50	> 50	> 100	> 100	> 100	27.4 (≈ 71.7 µM)	> 50	> 100	> 100	> 50
OC[C@@H]1C[C@H](CO)[C@@H]2C(c3ccccc3Cl)=NO[C@H]12	> 50	> 50	> 100	> 100	> 100	> 50	33.8 (≈ 120 µM)	> 100	74.4 (≈ 264 µM)	> 50
C[C@@H]1[C@H](O)[C@@H](C)/C=C/C=C/C=C/C=C/C=C/C=C/C=C/[C@H](O[C@@H]2O[C@H](C)[C@@H](O)[C@H](N)[C@@H]2O)C[C@@H]2O[C@](O)(C[C@@H](O)C[C@@H](O)[C@H](O)CC[C@@H](O)C[C@@H](O)CC(=O)O[C@H]1C)C[C@H](O)[C@H]2C(=O)O [AMPHOTERICIN B]			5 (≈ 5.41 µM)							
COc1ccc(C2=NO[C@@H]3[C@H](CO)C[C@H](CO)[C@H]23)cc1	36.6 (≈ 132 µM)	> 50	> 100	> 100	> 100	> 50	> 50	> 100	> 100	23.7 (≈ 85.5 µM)
COC(=O)[C@H]1C[C@@H](C(=O)OC)[C@H]2ON=C(c3ccccc3Cl)[C@H]21	> 50	> 50	> 100	> 100	> 100	> 50	> 50	> 100	> 100	> 50
COc1ccc(C2=NO[C@H]3[C@@H]2[C@@H](C(=O)O)C[C@H]3C(=O)O)cc1OC	> 50	> 50	81.6 (≈ 243 µM)	44.2 (≈ 132 µM)	> 100	> 50	40.6 (≈ 121 µM)	88.4 (≈ 264 µM)	> 100	> 50
COC(=O)[C@H]1C[C@@H](C(=O)OC)[C@H]2ON=C(c3ccc4ccccc4c3)[C@H]21	> 50	> 50	> 100	> 100	> 100	> 50	> 50	> 100	> 100	> 50
COc1ccc(C2=NO[C@H]3[C@@H]2[C@@H](C(=O)O)C[C@H]3C(=O)O)cc1	> 50	> 50	> 100	> 100	> 100	> 50	> 50	> 100	> 100	> 50
O=C(O)[C@H]1C[C@@H](C(=O)O)[C@H]2ON=C(c3ccc(Br)cc3)[C@H]21	> 50	> 50	8.7 (≈ 24.6 µM)	22 (≈ 62.1 µM)	10.5 (≈ 29.6 µM)	45.6 (≈ 129 µM)	> 50	2.2 (≈ 6.21 µM)	10.5 (≈ 29.6 µM)	> 50
COC(=O)[C@H]1C[C@@H](C(=O)OC)[C@H]2ON=C(c3ccc(C#N)cc3)[C@H]21	> 50	> 50	> 100	> 100	> 100	> 50	> 50	> 100	> 100	> 50
Cc1ccc(C2=NO[C@H]3[C@@H]2[C@@H](C(=O)O)C[C@H]3C(=O)O)cc1	> 50	> 50	> 100	> 100	> 100	> 50	> 50	> 100	> 100	> 50
OC[C@@H]1C[C@H](CO)[C@@H]2C(c3ccc(Cl)cc3)=NO[C@H]12	> 50	> 50	> 100	> 100	> 100	> 50	22.9 (≈ 81.3 µM)	> 100	> 100	14.7 (≈ 52.2 µM)
CC1(C)S[C@@H]2[C@H](NC(=O)[C@H](N)c3ccccc3)C(=O)N2[C@H]1C(=O)O [AMPICILLIN]					25 (≈ 71.5 µM)				25 (≈ 71.5 µM)	
COC(=O)[C@H]1C[C@@H](C(=O)OC)[C@H]2ON=C(c3ccc(C)cc3)[C@H]21	> 50	> 50	> 100	> 100	> 100	> 50	> 50	> 100	> 100	> 50
